Measurements as given in US11872230B2, “Method of treating a methionine-dependent cancer” (Agency for Science, Technology and Research, priority 2018, dated 2024).

Columns and labels:
[1] = tested on: methionine cycle metabolites in TS cells; test: LC/MS abundance of methionine cycle metabolites 48 h after inhibitor treatment; assay type: cell-based, human; details: 48 h FIDAS5 (10 μM), normalized to DMSO
Method: Cis-platinum (cis-Diammineplatinum(II) dichloride) and MG132 (10 μM final concentration) was purchased from Sigma, FIDAS-5 (final concentration of 10 μM in culture medium) from Merck Millipore and D9 (final concentration of 500 nM in culture medium).
For suspension cell culture, 10 million cells per sample were obtained and quenched with 4 volumes of ice-cold 150 mM sodium chloride solution. The cell pellets were collected by centrifugation of the quenched samples at 3000 g for 5 min at 4° C. and the supernatant was aspirated and discarded. For adherent cell culture, the media was gently aspirated and the cells on the surfaces of the well plates were gently washed with ice-cold 150 mM sodium chloride solution thrice. Ice-cold sodium chloride was added to the plate and a cell scraper was used to release adherent cells from the plate surface. The cell pellets were collected as described earlier and kept on ice. […]
For targeted LC/MS analysis, the chromatographic peak integration was performed using Targetlynx software (Waters Corp). In addition, for the ^13C-labeled methionine pulse-chase experiments, the atomic percent excess (APE) for each species was calculated and natural abundance corrected from an isotopomer matrix accounting for the presence of natural abundance carbons distributed throughout each possible parent/daughter ion combination (Table 3). […]

TS cells (lung TICs) [2] = test: Tumor formation in NSG mice after transplantation of pre-treated TS cells; assay type: in vivo; details: 500,000 TS cells treated 48 h with inhibitor, transplanted into NSG mice, 6 weeks
From the text: 5×10^5 single cells were mixed in a 1:1 mixture of serum free DMEM/F12 and Matrigel (BD) and injected subcutaneously into the flanks of 4-6 week old male and female NOD.Cg-Prkdc^scid Il2rg^tm1wjl SzJ (Jackson Laboratories). About 6 weeks later, or when tumor sizes exceed 2 cm in length, mice were sacrificed and tumors harvested for analysis. All animal experiments were approved by the Agency for Science Technology and Research Singapore—Biological Resource Centre. Mice were randomized by sex.
(§1) To evaluate the methionine cycle as a therapeutic target in lung TICs, small molecule inhibitors that target enzymes within this pathway were employed, mimicking the effects of short-term methionine starvation (FIG. 5a). two inhibitors known to perturb methionine cycle activity and cellular methylation levels: 1) MAT2A inhibitor, FIDAS5; and 2) SAHH inhibitor, D9, which is an analog of DZNep. In a manner similar to amino acid starvation studies, TS cells were exposed transiently to the compounds for 48 h in culture and were immediately used for downstream tumorigenesis assays.

[3] = tested on: non-neoplastic cell lines; test: Proliferation of non-neoplastic (untransformed) cell lines in FIDAS5-containing media; assay type: cell-based
Method: (§2) Cells were seeded into 96-well plates at a density of 2,000 cells/well for TS cells and 500 cells/well for Adh cells. The relative number of viable cells was determined by the quantification of ATP using the CellTiter-Glo Luminescent Cell Viability Assay (Promega) system.

[4] = tested on: CD166 expression in TS cells; test: CD166 staining of TS cells by flow cytometry; assay type: cell-based, human; details: FIDAS vs DMSO
TS cells = test: Apoptosis assay (Annexin V/PI) of inhibitor treated TS cells; assay type: cell-based, human; details: transient exposure
From the text: 10^6 cells were stained with FITC Annexin V and PI, and analysed for apoptosis by flow cytometry using an LSRII Cell Analyzer (BD) according to manufacturer's instructions.

[5] = tested on: cancer cell lines with high or low MAT2A expression; test: Proliferation of cancer cell lines grown in FIDAS5 containing medium; assay type: cell-based; details: 10 uM
Method: as §2

TS cells (lung TICs) [6] = test: Soft agar colony formation of pre-treated TS cells; assay type: cell-based, human; details: TS cells treated 48 h with inhibitor prior to soft agar assay
Method: 2.5 ml lower layer of 0.7% agar in complete DMEM/F12 with 10% fetal bovine serum was placed in 3 wells of a 6 well dish, and permitted to solidify. 2×10^4 Cells (for 3 wells) were then suspended in a 2 ml layer of 0.35% agar in complete DMEM/F12 with 10% fetal bovine serum and layered on top of the bottom layer. Colonies were stained with crystal violet and counted after approximately 2 months.
as §1

Adh cells = test: Proliferation of Adh cells grown in FIDAS5-containing media; assay type: cell-based, human
Method: as §2

With `CNc1ccc(/C=C/c2c(F)cccc2Cl)cc1` [FIDAS5] as the molecule, how does the “reduction of intracellular levels of SAH” value [1] read?
Its value is about 10 fold.

What about the “reduction of intracellular levels of SAM” value [1] of the same molecule?
The value was about 10 fold.

And the tumor-forming ability (TS cells (lung TICs) [2])?
The tumor-forming ability was “severely diminished”.

What about the “proliferation in FIDAS5-containing media” value [3] of the same molecule?
The value was “far less affected”.

What about the CD166 expression [4] of the same molecule?
The CD166 expression was “loss of CD166 expression”.

And the apoptosis (TS cells)?
Its apoptosis is “did not negatively impact their long-term proliferation ability or trigger apoptosis”.

What about the “growth upon FIDAS5 treatment” value ([5]; cancer cell lines expressing high MAT2A) of the same molecule?
The value was “dramatically hampered in their growth”.

What about the “growth upon FIDAS5 treatment” value ([5]; cancer cell lines expressing low MAT2A) of the same molecule?
Its value is “largely insensitive”.

And the colony-forming ability (TS cells (lung TICs) [6])?
The colony-forming ability was “severely diminished”.

What about the “proliferation in FIDAS5-containing media” value (Adh cells) of the same molecule?
The value was “far less affected”.
